Values of other authors as cited in US4081530A, “Extended chain derivatives of somatostatin” (Ayerst, McKenna & Harrison Limited, priority 1975, dated 1978).

Conditions: somatostatin-like activity

Substance: [Ala^3,14 ]-somatostatin (AGAKNFFWKTFTSA; Somatostatin-14; UniProt P61278 103-116, looked up, variant C3A C14A) [somatostatin analog synthesised by solid phase methods (Sarantakis et al.)]
- activity as share of somatostatin's potency: about 0.01%
